Source: article PMC9781916, “Antipsychotic- and Anxiolytic-like Properties of a Multimodal Compound JJGW08 in Rodents” (International Journal of Molecular Sciences, 2022)

What was measured:
[1] = set-up: method as in earlier work; details: ref 43 (Bubeníková et al.); cited from earlier work
[2] = target: T1, human serotonin 5-HT1A receptor (Homo sapiens, UniProt P08908); assay: Functional assay (aequorin, calcium mobilization) in CHO-K1 cells, 5-HT1A receptor; type: cell-based; details: CHO-K1, agonist mode
T1 construct: host or cells: CHO-K1
T1 sequence (P08908 1-422): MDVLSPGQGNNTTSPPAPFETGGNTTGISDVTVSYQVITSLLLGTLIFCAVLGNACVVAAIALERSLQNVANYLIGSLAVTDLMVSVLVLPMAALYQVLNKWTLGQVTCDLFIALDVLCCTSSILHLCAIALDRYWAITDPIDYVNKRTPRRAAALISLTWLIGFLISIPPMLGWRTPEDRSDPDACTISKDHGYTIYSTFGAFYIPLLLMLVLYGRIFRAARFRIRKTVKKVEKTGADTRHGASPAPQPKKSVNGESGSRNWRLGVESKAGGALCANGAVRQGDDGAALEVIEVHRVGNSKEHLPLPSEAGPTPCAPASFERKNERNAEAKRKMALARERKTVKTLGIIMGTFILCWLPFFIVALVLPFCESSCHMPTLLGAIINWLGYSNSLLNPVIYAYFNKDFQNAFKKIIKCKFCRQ
Description: (§3) Tested and reference compounds were dissolved in dimethyl sulfoxide (DMSO) at a concentration of 10 mM. Serial dilutions were prepared in a 96-well microplate in assay buffer, and 8 to 10 concentrations were tested. […] The assay was executed according to the previously described protocol [45]. After thawing, cells were transferred to assay buffer (DMEM/HAM’s F12 with 0.1% protease-free BSA) and centrifuged. The cell pellet was resuspended in assay buffer, and coelenterazine h was added at final concentrations of 5 µM. The cell suspension was incubated at 16 °C (or 21 °C), protected from light with constant agitation for 16 h (or 4 h), and then diluted with assay buffer to the concentration of 100,000 cells/mL (or 250,000 cells/mL). After 1 h of incubation, 50 µL of the cell’s suspension was dispensed using automatic injectors built into the radiometric and luminescence plate counter MicroBeta2 LumiJET (PerkinElmer, Waltham, NA, USA) into white opaque 96-well microplates preloaded with test compounds. Immediate light emission generated following calcium mobilization was recorded for 30 s. In antagonist mode, after 25–30 min of incubation, the reference agonist was added to the above assay mix, and light emission was re-recorded. […] IC50 and EC50 values were calculated.

rats = assay: Open field test after MK-801 administration in rats (MK-801-induced hyperlocomotion); type: in vivo; details: MK-801 0.3 mg/kg ip
Description: Figure 4 The effect of JJGW08 and clozapine on MK-801-induced hyperlocomotion in rats. After the habituation period (30 min, 24 h before the test), locomotor activity was measured individually for each animal in the special apparatus. The walked distance (cm) was monitored at 10-min intervals for 30 min, using a computerized system that tracked the animals’ movement and behavior. JJGW08 and clozapine were administered intraperitoneally (ip) 30 or 60 min before the test, respectively, while MK-801 (0.3 mg/kg) was administered ip 15 min before the start of the experiment. The control group received 0.9% NaCl solution (ip) (or 1% Tween (ip) for clozapine) and MK-801 (0.3 mg/kg, ip). Values are expressed as mean ± SD, n = 7–8 rats per group. Statistical analysis: one-way ANOVA (Newman–Keuls post hoc) * p < 0.05, ** p < 0.01, *** p < 0.001.
The experiment was evaluated according to the method described earlier. It was performed in a soundproof chamber with a 30-min habituation period 24 h before the procedure. The open field apparatus consisted of four black, octagonal, stainless steel arenas (diameter: 80 cm) with 30 cm high walls. Each arena was divided into a peripheral and central sector. The peripheral sector was defined as the region within 20 cm from the walls. The approximate light intensity was 15 lx in the central point of the arena and 4 lx close to its walls.
Individual rats were placed in the central part of the open field and allowed to explore the whole arena for 30 min under dim light (approximately 10 lx) and continuous white noise (65 dB). Forward locomotion (cm/30 min) was registered in 10-min intervals for 30 min and analyzed with the aid of a computerized video tracking system (Videomot, TSE, Bad Homburg, Germany). The arenas were cleaned between tests with 20% (v/v) alcohol and allowed to dry.
The tested compound was administered ip 30 min before the experiment at the dose range of 0.3–30.0 mg/kg, and MK-801 (0.3 mg/kg,) was administered ip 15 min before the procedure. […]

mice [3] = assay: Marble burying test in mice; type: in vivo
Description: Figure 3 The effect of JJGW08 and aripiprazole on the number of buried marbles by mice. Mice were placed individually in cages with a 5 cm bedding layer, where 20 glass balls were placed. The number of buried marbles after 30 min of the test was counted. JJGW08 was administered intraperitoneally (ip) 30 min before the test. The control group received 0.9% NaCl solution (ip) or 1% Tween (ip) for aripiprazole. Values are expressed as means ± SD in the case of one-way ANOVA (aripiprazole) or median with interquartile range in the case of Kruskal–Wallis test (JJGW08), n = 8–10 mice per group. Statistical analysis: one-way ANOVA (Newman–Keuls post hoc), and Kruskal–Wallis test (Dunn post hoc), * p < 0.05, ** p < 0.01, *** p < 0.001.
The test was conducted according to the method described by Broekkamp et al. with minor modifications. Mice were placed individually in plastic cages, identical to their home cages, that contained a layer of bedding and 20 glass balls (1.6 cm in diameter) arranged in a pattern 4 × 5. After 30 min of the experiment, the mice were removed from the cages, and the number of balls buried to at least 2/3 of their size was counted.

human D2 receptor = target: T2, human D2 receptor (Homo sapiens, UniProt P14416); assay: Functional assay (aequorin, calcium mobilization) in CHO-K1 cells, D2 receptor; type: cell-based; set-up: Emax: dose or concentration left out as unconfirmed; details: CHO-K1, read-out: Antagonist Mode Emax%
T2 construct: host or cells: CHO-K1
T2 sequence (P14416 whole entry): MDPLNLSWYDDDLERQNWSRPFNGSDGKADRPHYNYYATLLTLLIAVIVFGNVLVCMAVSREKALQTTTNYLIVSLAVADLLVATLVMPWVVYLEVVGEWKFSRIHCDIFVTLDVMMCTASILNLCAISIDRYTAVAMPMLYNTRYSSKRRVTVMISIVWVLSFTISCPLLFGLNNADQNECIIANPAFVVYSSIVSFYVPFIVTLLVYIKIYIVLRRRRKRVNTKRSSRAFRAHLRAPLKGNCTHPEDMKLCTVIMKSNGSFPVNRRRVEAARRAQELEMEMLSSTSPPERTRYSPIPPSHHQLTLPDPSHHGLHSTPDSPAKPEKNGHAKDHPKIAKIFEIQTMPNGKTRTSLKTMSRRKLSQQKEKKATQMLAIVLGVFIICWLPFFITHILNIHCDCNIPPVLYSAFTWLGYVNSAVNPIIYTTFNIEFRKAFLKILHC
Description: as §3

mice [4] = assay: Amphetamine-induced hyperlocomotion test in mice; type: in vivo; details: amphetamine 2.5 mg/kg sc
Description: (§1) Locomotor activity was recorded in actometers separately for each mouse. After 30 min of adaptation, the number of crossings of photo beams was measured during 60 min. […] MK-801 (0.2 mg/kg, ip) was administered 15 min before the experiment, while amphetamine (2.5 mg/kg) was administered subcutaneously (sc) 30 min before the experiment. […] Values are expressed as means ± SD, n = 8–10 mice per group. Statistical analysis: one-way ANOVA (Newman–Keuls post hoc), * p < 0.05, ** p < 0.01, *** p < 0.001.
(§2) The test was performed according to the method described by Carlsson et al.. The mobility of the animals was measured in actometers, i.e., in plastic Opto M3 cages (22 × 12 × 13 cm) connected to a computer with MultiDevice Software v.1.30 (Columbus Instruments, Columbus, OH, USA). The experimental cages were equipped with infrared sources on one side and sensors receiving the emitted rays on the other side of the cage. The crossing of each beam of infrared rays was classified as motor activity. The animals were placed individually in experimental cages immediately after administration of the tested compound, 30 min before the start of the test, to adapt to the new conditions and exclude the occurrence of hyperactivity caused by the change of the environment. Spontaneous locomotor activity was measured every 5 min for 60 min. Mice received two injections: of the tested compound or reference substance (30 min before the test, ip) and of amphetamine (2.5 mg/kg, 30 min before the test, sc) or MK-801 (0.2 mg/kg, 15 min before the test, ip). Control groups received an injection of saline and amphetamine or MK-801, or two injections of saline, respectively. Olanzapine was used as a reference compound.

mice [5] = assay: MK-801-induced hyperlocomotion test in mice; type: in vivo; details: MK-801 0.2 mg/kg ip
Description: as §1, §2

[6] = target: T3, human serotonin 5-HT2A receptor (Homo sapiens, UniProt P28223); type: cell-based; details: 5-HT2A
T3 construct: host or cells: CHO-K1
T3 sequence (P28223 whole entry): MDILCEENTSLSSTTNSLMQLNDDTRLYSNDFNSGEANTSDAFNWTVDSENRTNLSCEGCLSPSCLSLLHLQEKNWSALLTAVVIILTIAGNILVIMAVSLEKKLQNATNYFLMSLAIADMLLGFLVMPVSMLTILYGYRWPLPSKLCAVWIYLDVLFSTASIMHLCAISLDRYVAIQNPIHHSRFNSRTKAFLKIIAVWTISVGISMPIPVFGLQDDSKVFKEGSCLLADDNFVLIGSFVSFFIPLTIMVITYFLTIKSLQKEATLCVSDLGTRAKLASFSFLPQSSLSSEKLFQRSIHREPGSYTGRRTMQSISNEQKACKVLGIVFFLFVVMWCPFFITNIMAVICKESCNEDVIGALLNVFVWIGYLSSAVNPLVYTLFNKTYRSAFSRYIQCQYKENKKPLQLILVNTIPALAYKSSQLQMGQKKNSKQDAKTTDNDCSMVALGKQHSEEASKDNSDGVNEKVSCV
Description: as §3

Structure (SMILES): Cc1nc2n(c(=O)c1CCN1CCC(c3noc4cc(F)ccc34)CC1)CCCC2 [risperidone]
- effect on MK-801-induced deficits in the prepulse inhibition test (in words) [1]: ineffective

Structure (SMILES): COc1ccccc1N1CCN(CCCCN2C(=O)c3ccccc3C2=O)CC1 [NAN-190, reference compound]
- Emax [2]: 6%

Structure (SMILES): CN1CCN(C2=Nc3cc(Cl)ccc3Nc3ccccc32)CC1 [clozapine]
- effect on MK-801-induced deficits in the prepulse inhibition test (in words) [1]: restored
- reduction of MK-801-induced hyperlocomotion in the open field (rats; 10 mg/kg ip): 53%
- reduction of MK-801-induced hyperlocomotion in the open field (rats; 30 mg/kg ip): 98%

Structure (SMILES): O=C1CCc2ccc(OCCCCN3CCN(c4cccc(Cl)c4Cl)CC3)cc2N1 [aripiprazole]
- reduction of the number of buried marbles (mice [3]; 1.25 mg/kg ip): 61%
- reduction of the number of buried marbles (mice [3]; 2.5 mg/kg ip): 69%
- reduction of the number of buried marbles (mice [3]; 5.0 mg/kg ip): 93%

Structure (SMILES): CN1CCc2cccc3c2[C@H]1Cc1ccc(O)c(O)c1-3 [Apomorphine, reference compound]
- Emax (human D2 receptor): 0%

Structure (SMILES): Cc1cc2c(s1)Nc1ccccc1N=C2N1CCN(C)CC1 [Olanzapine]
- reduction of amphetamine-induced hyperlocomotion (mice [4]; 0.03 mg/kg ip): 54%
- reduction of amphetamine-induced hyperlocomotion (mice [4]; 0.3 mg/kg ip): 75%
- reduction of MK-801-induced hyperlocomotion (mice [5]; 0.03 mg/kg ip): 63%
- reduction of MK-801-induced hyperlocomotion (mice [5]; 0.3 mg/kg ip): 82%
- effect on MK-801-induced deficits in the prepulse inhibition test (in words) [1]: restored

Structure (SMILES): CC(N)Cc1c[nH]c2ccc(O)cc12 (stereo not drawn) [α-methylserotonin, reference compound]
- Agonist Mode Emax% ([6]; agonist mode): 100%
- Agonist Mode pEC50 ± Range ([6]; agonist mode): 8.5 ± 0.3
- Antagonist Mode Emax% ([6]; antagonist mode, 30 nM α-methylserotonin as reference agonist): 2%
